Measurements from article PMC6407587, “Inhibition potential of phenolic constituents from the aerial parts of Tetrastigma hemsleyanum against soluble epoxide hydrolase and nitric oxide synthase” (Journal of Enzyme Inhibition and Medicinal Chemistry, 2019).
Where two headings read alike, the source gives them in different places.

Assays:
sEH = target: T1, sEH (Homo sapiens, UniProt P34913); test: sEH inhibitory activity, fluorescence assay with PHOME substrate; type: biochemical; settings: for inhibition at 100 µM / Inhibition on sEH at 100 µM (%): 100 µM compound, tested three times; for IC50: PHOME substrate, dose-dependent response curve
T1 sequence (P34913 1-555): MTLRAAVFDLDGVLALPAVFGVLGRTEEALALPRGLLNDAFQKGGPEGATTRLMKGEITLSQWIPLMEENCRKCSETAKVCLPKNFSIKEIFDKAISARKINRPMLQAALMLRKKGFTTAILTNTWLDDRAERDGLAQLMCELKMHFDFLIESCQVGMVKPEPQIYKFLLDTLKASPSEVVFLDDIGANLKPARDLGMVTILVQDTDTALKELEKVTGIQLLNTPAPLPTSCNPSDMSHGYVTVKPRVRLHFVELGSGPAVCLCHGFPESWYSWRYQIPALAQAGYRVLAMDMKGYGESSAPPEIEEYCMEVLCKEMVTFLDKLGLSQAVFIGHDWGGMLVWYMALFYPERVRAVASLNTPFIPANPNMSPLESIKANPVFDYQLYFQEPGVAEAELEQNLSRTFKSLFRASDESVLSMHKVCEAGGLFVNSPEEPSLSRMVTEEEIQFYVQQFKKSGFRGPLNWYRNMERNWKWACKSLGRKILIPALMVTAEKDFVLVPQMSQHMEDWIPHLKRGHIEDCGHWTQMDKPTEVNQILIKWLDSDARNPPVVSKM

[1] = test system: LPS-induced NO production in macrophage RAW 264.7 cells (iNOS); test: Inhibition of LPS-induced NO production in RAW 264.7 macrophages (Griess reaction, measure of iNOS activity); type: cell-based; settings: for IC50: means ± SE, n = 3;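 as to all read-outs here: cells pretreated with compound for 2 h, then stimulated 24 h with LPS at 500 ng/ml, supernatant nitrite quantified by absorbance at 550 nm against a nitrite standard curve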
[2] = Mus musculus, 50 µM compound, LPS-stimulated RAW264.7 cells, read-out: Inhibition of NO production at 50 µM (%)
[3] = Mus musculus, RAW264.7, LPS-stimulated RAW264.7 cells
[4] = 50 µM compound, LPS-stimulated RAW264.7 cells
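For Cytotoxicity in RAW 264.7 cells (MTT) in this document: viability gauged by mitochondrial reductase turning MTT into formazan, optical density read at 570 nm, with untreated control cells set as 100% viability.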

| SMILES | inhibition at 100 µM (sEH) [%] | Cytotoxicity in RAW 264.7 cells (MTT) (RAW 264.7 cells) | inhibition at 50 µM [1, 2] [%] | IC50 (sEH) [µM] | also measured |
| --- | --- | --- | --- | --- | --- |
| O=C(CO)c1ccc(O)cc1 [Compound 28] | 22.1 ± 0.9 | did not exhibit significant cytotoxicity | 6.2 |  |  |
| O=C1CC(c2ccc(O)c(O)c2)c2c(O)cc3c(c2O1)CC(O)C(c1ccc(O)c(O)c1)O3 (centres unmarked) [Compound 22] | 31.9 ± 4.5 | did not exhibit significant cytotoxicity | 18.3 |  |  |
| C[C@@H]1O[C@@H](OC[C@H]2O[C@@H](Oc3c(-c4ccc(O)cc4)oc4cc(O)cc(O)c4c3=O)[C@H](O)[C@@H](O)[C@H]2O)[C@H](O)[C@H](O)[C@H]1O [Compound 15] | 60.2 ± 0.5 | did not exhibit significant cytotoxicity | 3 | 18.3 ± 0.2 |  |
| O=C(O)/C=C/c1ccc(O)cc1 [Compound 29] | 39.7 ± 4.4 |  | 13.4 |  |  |
| COc1ccc(C(=O)O)cc1O [Compound 27] | 17.5 ± 0.2 | did not exhibit significant cytotoxicity | 24 |  |  |
| O=c1c(O[C@@H]2O[C@H](CO)[C@@H](O)[C@H](O)[C@H]2O)c(-c2ccc(O)cc2)oc2cc(O)cc(O)c12 [Compound 14] | 78 ± 1 | did not exhibit significant cytotoxicity | 9 | 21.3 ± 0.3 |  |
| CC1OC(OCC2OC(OCCc3ccccc3)C(O)C(O)C2O)C(O)C(O)C1O (centres unmarked) [Compound 36] |  | did not exhibit significant cytotoxicity | 20.9 |  | Inhibition on sEH at 100 µM (%) (sEH): N.I |
| CCCCOC(=O)[C@@]1(O)C[C@@H](O)[C@H](O)[C@H](OC(=O)/C=C/c2ccc(O)c(O)c2)C1 [Compound 5] | 77.7 ± 2.6 | did not exhibit significant cytotoxicity | 53 | 33.1 ± 0.3 | IC50 [1, 3]: 45.3 ± 1.4 µM |
| COc1cc(C(=O)O)ccc1O [Compound 26] | 21.3 ± 0.2 |  | 11.4 |  |  |
| OC[C@H]1O[C@@H](OCCc2ccccc2)[C@H](O)[C@@H](O)[C@@H]1O [Compound 34] | 13.3 ± 0.2 | did not exhibit significant cytotoxicity | 12.8 |  |  |
| CC/C=C\CCO[C@@H]1O[C@H](CO)[C@@H](O)[C@H](O)[C@H]1O [Compound 37] | 24.6 ± 3.1 | did not exhibit significant cytotoxicity | 14.5 |  |  |
| COC(=O)[C@]1(O)C[C@@H](O)[C@@H](O)[C@H](OC(=O)/C=C/c2ccc(O)c(O)c2)C1 [Compound 6] | 111 ± 1.9 |  | 1.8 | 14.7 ± 0.4 |  |
| O=C(/C=C\c1ccc(O)cc1)O[C@@H]1C[C@@](O)(C(=O)O)C[C@@H](O)[C@@H]1O [Compound 9] | 32.3 ± 2.7 | did not exhibit significant cytotoxicity |  |  | Inhibition of NO production at 50 µM (%) [1, 4]: N.I |
| O=C(/C=C/c1ccc(O)c(O)c1)O[C@@H]1C[C@@](O)(C(=O)O)C[C@@H](O)[C@@H]1O [Compound 1] | 74.3 ± 3.4 | did not exhibit significant cytotoxicity | 5.7 | 41.9 ± 1.2 |  |
| O=C(C=Cc1ccc(O)c(O)c1)OC1C(O)CC(O)(C(=O)O)CC1O (centres unmarked) [Compound 7] | 69.2 ± 0.9 | did not exhibit significant cytotoxicity | 10.7 | 50.8 ± 1.5 |  |
| OC[C@H]1O[C@@H](OC[C@@H](O)c2ccc(O)cc2)[C@H](O)[C@@H](O)[C@@H]1O [Compound 35] | 10.5 ± 3 | did not exhibit significant cytotoxicity | 15.9 |  |  |
| COc1cc([C@@H]2Oc3c(OC)cc(CCCO)cc3[C@H]2CO)cc(OC)c1O [Compound 21] |  | did not exhibit significant cytotoxicity | 16.2 |  | Inhibition on sEH at 100 µM (%) (sEH): N.I |

| SMILES | inhibition at 100 µM (sEH) [%] | Cytotoxicity in RAW 264.7 cells (MTT) (RAW 264.7 cells) | inhibition at 50 µM [1, 2] [%] | IC50 (sEH) [µM] | also measured |
| --- | --- | --- | --- | --- | --- |
| O=C(O)c1ccc(O)cc1 [Compound 25] | 42 ± 3.9 | did not exhibit significant cytotoxicity | 17 |  |  |
| O=C(O)/C=C/c1ccc(O)c(O)c1 [Compound 30] |  | did not exhibit significant cytotoxicity | 21.5 | 21 ± 0.4 |  |
| COC(=O)[C@@]1(O)C[C@@H](O)[C@H](O)[C@H](OC(=O)/C=C/c2ccc(O)c(O)c2)C1 [Compound 4] | 68.3 ± 3.4 |  |  | 30.4 ± 0.8 | Inhibition of NO production at 50 µM (%) [1, 4]: N.I |
| Oc1ccc(/C=C/c2cc(O)cc(O)c2)cc1 [Compound 32] |  | did not exhibit significant cytotoxicity | 77.7 | 6.8 ± 0.9 | IC50 [1, 3]: 30.6 ± 1.8 µM |
| C[C@@H]1C[C@H]2[C@@H]3CCC4=CC(=O)C=C[C@]4(C)[C@@]3(F)[C@@H](O)C[C@]2(C)[C@@]1(O)C(=O)CO [Dexamethasone, reference compound] |  |  |  |  | IC50 ([1]; LPS-stimulated RAW264.7 cells): 10.5 ± 0.1 µM; IC50 [1, 3]: 10.5 ± 0.13 µM |
| O=C(/C=C/c1ccc(O)cc1)O[C@@H]1C[C@@](O)(C(=O)O)C[C@@H](O)[C@@H]1O [Compound 2] | 4.4 ± 3.2 | did not exhibit significant cytotoxicity | 19.7 |  |  |
| O=Cc1ccc(O)c(O)c1 [Compound 24] | 38.6 ± 0.2 | did not exhibit significant cytotoxicity | 22.2 |  |  |
| Oc1ccc(-c2ccc(O)c(O)c2)cc1O [Compound 33] | 19.4 ± 0.8 | did not exhibit significant cytotoxicity | 3 |  |  |
| COc1cc(/C=C/C(=O)O[C@@H]2C[C@@](O)(C(=O)O)C[C@@H](O)[C@@H]2O)ccc1O [Compound 3] | 67.1 ± 3.4 | did not exhibit significant cytotoxicity | 26.1 | 60.7 ± 1.9 |  |
| C[C@@H]1CC[C@]2(C(=O)O)CC[C@]3(C)C(=CC[C@@H]4[C@@]5(C)C[C@@H](O)[C@@H](O)C(C)(C)[C@@H]5CC[C@]43C)[C@@H]2[C@]1(C)O [Compound 38] | 39.5 ± 4.1 | did not exhibit significant cytotoxicity | 8.9 |  |  |
| CC[C@H](/C=C/[C@@H](C)[C@H]1CC[C@H]2[C@@H]3CC=C4C[C@@H](O[C@@H]5O[C@H](CO)[C@@H](O)[C@H](O)[C@H]5O)CC[C@]4(C)[C@H]3CC[C@]12C)C(C)C [Compound 39] |  | did not exhibit significant cytotoxicity |  |  | Inhibition on sEH at 100 µM (%) (sEH): N.I; inhibition at 50 µM ([1]; Mus musculus, RAW264.7, read-out: Inhibition of NO production at 50 µM (%)): 20.3% |
| O=C1C[C@@H](c2ccc(O)cc2)Oc2cc(O)ccc21 [Compound 11] | 34.5 ± 2.5 |  | 10.8 |  |  |
| COc1cc([C@H]2Oc3c(OC)cc(CCCO)cc3[C@@H]2CO[C@@H]2O[C@H](CO)[C@@H](O)[C@H](O)[C@H]2O)ccc1O [Compound 20] |  | did not exhibit significant cytotoxicity | 13.9 |  | Inhibition on sEH at 100 µM (%) (sEH): N.I |
| O=C1c2c(O)cc(O)cc2O[C@H](c2ccc(O)cc2)[C@H]1O[C@@H]1O[C@H](CO)[C@@H](O)[C@H](O)[C@H]1O [Compound 13] | 22.7 ± 3.9 | did not exhibit significant cytotoxicity |  |  | Inhibition of NO production at 50 µM (%) [1, 4]: N.I |
| COc1cc(C(=O)O)cc(OC)c1O [Compound 23] | 10.7 ± 3 |  | 14.1 |  |  |
| COc1cc(/C=C/C(=O)O)ccc1O [Compound 31] | 43 ± 1.1 |  | 10.6 |  |  |
